Measurements from patent US20250129052A1, “PYRAZINE COMPOUNDS FOR THE CONTROL OF INVERTEBRATE PESTS” (priority 2021, published 2025).

Legend:
Assay type in all cases: in vivo
[1] = tested on: green peach aphid (Myzus persicae); assay: B.1 Green peach aphid, systemic, artificial diet in microtiter plates; conditions: for mortality at 2500 ppm: 72 h, 3 days, aphid diet, read-out: mortality in comparison with untreated controls; for mortality at 7.9 ppm / mortality at 9.9 ppm: read-out: % mortality in comparison to untreated controls, B.1
Excerpt: B.1 Green Peach Aphid (Myzus persicae)
For evaluating control of green peach aphid (Myzus persicae) through systemic means, the test unit consisted of 96-well-microtiter plates containing liquid artificial diet under an artificial mem brane.
The compounds were formulated using a solution containing 75% v/v water and 25% v/v DMSO. Different concentrations of formulated compounds were pipetted into the aphid diet, using a custom built pipetter, at two replications.
After application, 5-8 adult aphids were placed on the artificial membrane inside the microtiter plate wells. The aphids were then allowed to suck on the treated aphid diet and incubated at about 23±1° C. and about 50±5% relative humidity for 3 days. Aphid mortality and fecundity was then visually assessed.

[2] = tested on: tobacco budworm (Heliothis virescens); assay: B.2 Tobacco budworm, insect diet with eggs in microtiter plates; conditions: 120 h, 5 days, egg and larval mortality, read-out: mortality in comparison with untreated controls
Description: B.2 Tobacco Budworm (Heliothis virescens)
For evaluating control of tobacco budworm (Heliothis virescens), the test unit consisted of 96-well-microtiter plates containing an insect diet and 15-25 H. virescens eggs.
The compounds were formulated using a solution containing 75% v/v water and 25% v/v DMSO. Different concentrations of formulated compounds were sprayed onto the insect diet at 10 μl, using a custom-built micro atomizer, at two replications.
After application, microtiter plates were incubated at about 28±1° C. and about 80±5% relative humidity for 5 days. Egg and larval mortality was then visually assessed.

[3] = tested on: boll weevil (Anthonomus grandis); assay: B.3 Boll weevil, insect diet with eggs in microtiter plates; conditions: for mortality at 2500 ppm: 120 h, read-out: mortality in comparison with untreated controls; for mortality at 7.9 ppm: read-out: % mortality in comparison to untreated controls, B.3
Description: B.3 Boll Weevil (Anthonomus grandis)
For evaluating control of boll weevil (Anthonomus grandis), the test unit consisted of 96-well-microtiter plates containing an insect diet and 5-10 A. grandis eggs.
The compounds were formulated using a solution containing 75% v/v water and 25% v/v DMSO. Different concentrations of formulated compounds were sprayed onto the insect diet at 5 μl, using a custom-built micro atomizer, at two replications.
After application, microtiter plates were incubated at about 25±1° C. and about 75±5% relative humidity for 5 days. Egg and larval mortality was then visually assessed.

[4] = tested on: Southern Armyworm (Spodoptera eridania), 2nd Instar Larvae; assay: B.4 Southern armyworm, 2nd instar larvae, sprayed lima bean plants; conditions: 96 h, 4 days after treatment, foliar spray, read-out: mortality in comparison with untreated controls
Description: B.4. Southern Armyworm (Spodoptera eridania), 2nd Instar Larvae
The active compounds were formulated by a Tecan liquid handler in 100% cyclohexanone as a 10,000-ppm solution supplied in tubes. The 10,000-ppm solution was serially diluted in 100% cyclohexanone to make interim solutions. These served as stock solutions for which final dilutions were made by the Tecan in 50% acetone:50% water (v/v) into 10 or 20 ml glass vials. A non-ionic surfactant (Kinetic@) was included in the solution at a volume of 0.01% (v/v). The vials were then inserted into an automated electrostatic sprayer equipped with an atomizing nozzle for application to plants/insects. Lima bean plants (variety Sieva) were grown 2 plants to a pot and selected for treatment at the 1st true leaf stage. Test solutions were sprayed onto the foliage by an automated electrostatic plant sprayer equipped with an atomizing spray nozzle. The plants were dried in the sprayer fume hood and then removed from the sprayer. Each pot was placed into perforated plastic bags with a zip closure. Ten to 11 armyworm larvae were placed into the bag and the bags zipped closed. Test plants were maintained in a growth room at about 25° C. and about 20-40% relative humidity for 4 days, avoiding direct exposure to fluorescent light (14:10 light:dark photoperiod) to prevent trapping of heat inside the bags. Mortality and reduced feeding were assessed 4 days after treatment, compared to untreated control plants.

[5] = tested on: yellow fever mosquito (Aedes aegypti); assay: whole plant or invertebrate; conditions: 48 h, 2 days, larval mortality, read-out: mortality in comparison with untreated controls
Description: B.5 Yellow Fever Mosquito (Aedes aegypti)
For evaluating control of yellow fever mosquito (Aedes aegypti) the test unit consisted of 96-well-microtiter plates containing 200 μl of tap water per well and 5-15 freshly hatched A. aegypti larvae.
The active compounds were formulated using a solution containing 75% (v/v) water and 25% (v/v) DMSO. Different concentrations of formulated compounds or mixtures were sprayed onto the insect diet at 2.5 μl, using a custom-built micro atomizer, at two replications.
After application, microtiter plates were incubated at 28±1° C., 80±5% RH for 2 days. Larval mortality was then visually assessed.

[6] = tested on: Orchid thrips; Dichromothrips corbetti; assay: B.6 Orchid thrips, floral-immersion technique; conditions: 300 ppm; 72 hours after treatment
Description: B.6 ANAPCO (Orchid thrips; Dichromothrips corbetti)
Dichromothrips corbetti adults used for bioassay are obtained from a colony maintained continuously under laboratory conditions. For testing purposes, the test compound is diluted in a 1:1 mixture of acetone:water (vol:vol), plus Kinetic at a rate of 0.01% v/v.
Thrips potency of each compound is evaluated by using a floral-immersion technique. Each orchid petal is dipped into treatment solution and allowed to dry in Petri dishes. Treated petals are placed into individual re-sealable plastic along with about 20 adult thrips. All test arenas are held under dark condition and a temperature of about 28° C. for duration of the assay. The percent mortality is recorded 72 hours after treatment.

[7] = tested on: Black Bean Aphid; Aphis craccivora; assay: B.7 Black bean aphid, sprayed potted bean plants; conditions: 300 ppm; after 72 hours
Description: B.7 APHICR (Black Bean Aphid; Aphis craccivora)
The active compound is dissolved at the desired concentration in a mixture of 1:1 (vol:vol) distilled water:acetone. Surfactant (Kinetic) is added at a rate of 0.01% (vol/vol). The test solution is prepared at the day of use.
Potted (Kord traditional square pots Size 3″ and 2.5″ in depth) bush beans are cleaned with the apical leaves removed using pointed forceps, leaving only the cotyledon leaves. Plants are inoculated with about 30 mixed-stage aphid colony 24 hours before spraying. Potted bean plants are sprayed with the test solutions using a DeVilbiss hand atomizer (20-30 psi). Treated plants are allowed to air-dry in the laboratory for about an hour before placing them inside the holding room maintained at 27° C., 50% RH and […] conditions. Stem of the treated bean plants are inserted in the slit of cut circle filter paper to catch the falling dead aphids. Assessment of population reduction (% mortality) is done after 72 hours.

Structure (SMILES) | mortality at 2500 ppm [1] | mortality at 2500 ppm [2] | mortality at 2500 ppm [3] | mortality at 300 ppm [4] | mortality at 2500 ppm [5] | mortality at 7.9 ppm [1] | mortality at 9.9 ppm [1] | mortality at 7.9 ppm [3] | % mortality in comparison to untreated controls, B.6 [6] | % mortality in comparison to untreated controls, B.7 [7]
CC(NC(=O)c1cc(Cl)cc(C(F)(F)F)c1)c1nccnc1-c1ncn(CC2CC2(Cl)Cl)n1 (centres unmarked) [Compound I1-14, 3-chloro-N-[1-[3-[1-[(2,2-dichlorocyclopropyl)methyl]-1,2,4-triazol-3-yl]pyrazin-2-yl]ethyl]-5-(trifluoromethyl)benzamide] | ≥ 75% | ≥ 75% | ≥ 75% | ≥ 75% | ≥ 75% | – | – | – | – | –
CC(NC(=O)c1cc(Cl)nc(Cl)c1)c1nccnc1-c1ncn(-c2ccccc2)n1 (centres unmarked) [Compound I2-1, 2,6-dichloro-N-[1-[3-(1-phenyl-1,2,4-triazol-3-yl)pyrazin-2-yl]ethyl]pyridine-4-carboxamide] | ≥ 75% | – | ≥ 75% | – | ≥ 75% | – | – | – | – | –
CC(NC(=O)c1cc(Cl)cc(S(C)(=O)=O)c1)c1nccnc1-c1ncn(C(C)C)n1 (centres unmarked) [Compound I1-7, 3-chloro-N-[1-[3-(1-isopropyl-1,2,4-triazol-3-yl)pyrazin-2-yl]ethyl]-5-methylsulfonyl-benzamide] | ≥ 75% | – | ≥ 75% | ≥ 75% | ≥ 75% | – | – | – | – | –
CC(NC(=O)c1cc(C(F)(F)F)cc(C(F)(F)F)c1)c1nccnc1-n1cncn1 (centres unmarked) [WO 2021/037614 P46, reference compound] | – | – | – | – | – | 0% | 25% | 50% | 0% | 50%
COc1ccc(Cn2cnc(-c3nccnc3C(C)NC(=O)c3cc(Cl)cc(C(F)(F)F)c3)n2)cc1 (centres unmarked) [Compound I1-4, 3-chloro-N-[1-[3-[1-[(4-methoxyphenyl)methyl]-1,2,4-triazol-3-yl]pyrazin-2-yl]ethyl]-5-(trifluoromethyl)benzamide] | – | – | ≥ 75% | ≥ 75% | – | – | – | – | – | –
CC(NC(=O)c1cc(Cl)cc(C(F)(F)F)c1)c1nccnc1-c1ncn(CC=C(Cl)Cl)n1 (centres unmarked) [Compound I1-11, 3-chloro-N-[1-[3-[1-(3,3-dichloroallyl)-1,2,4-triazol-3-yl]pyrazin-2-yl]ethyl]-5-(trifluoromethyl)benzamide] | – | ≥ 75% | ≥ 75% | – | ≥ 75% | – | – | – | – | –
CC(c1nccnc1-c1ncn(C(C)C)n1)N(C)C(=O)c1cc(Cl)cc(S(C)(=O)=O)c1 (centres unmarked) [Compound I1-5, 3-chloro-N-[1-[3-(1-isopropyl-1,2,4-triazol-3-yl)pyrazin-2-yl]ethyl]-N-methyl-5-methylsulfonyl-benzamide] | ≥ 75% | – | ≥ 75% | ≥ 75% | ≥ 75% | – | – | – | – | –
CC(NC(=O)c1cc(C(F)(F)F)cc(C(F)(F)F)c1)c1nccnc1-c1ncn(CC(F)(F)F)n1 (centres unmarked) [Compound I1-13] | ≥ 75% | ≥ 75% | ≥ 75% | ≥ 75% | ≥ 75% | 100% | – | 100% | 100% | –
CC(NC(=O)c1cc(Br)cc(C(F)(F)F)c1)c1nccnc1-c1ncn(CC(F)(F)F)n1 (centres unmarked) [Compound I1-1, 3-bromo-N-[1-[3-[1-(2,2,2-trifluoroethyl)-1,2,4-triazol-3-yl]pyrazin-2-yl]ethyl]-5-(trifluoromethyl)benzamide] | ≥ 75% | ≥ 75% | ≥ 75% | ≥ 75% | ≥ 75% | – | – | – | – | –
Cc1cnn(-c2nccnc2C(C)NC(=O)c2cc(C(F)(F)F)cc(C(F)(F)F)c2)n1 (centres unmarked) [WO 2021/037614 P1, reference compound] | – | – | – | – | – | – | 0% | – | 0% | 0%
CC(NC(=O)c1cc(C(F)(F)F)cc(C(F)(F)F)c1)c1nccnc1-c1ncn(C)n1 (centres unmarked) [Compound I1-12] | ≥ 75% | ≥ 75% | ≥ 75% | ≥ 75% | ≥ 75% | – | 100% | – | 100% | 100%
